For the data set the following is noted: as compared to prazoles such as panto prazole sodium and omeprazole sodium.

These results are taken from patent US20050234103A1, “Crystalline forms of rabeprazole sodium” (priority 2002, published 2005).

Consider `COCCCOc1ccnc(C[S+]([O-])c2nc3ccccc3[n-]2)c1C.[Na+]` (stereo not shown) [Form X, 2-[[[4-(3-methoxypropoxy)-3-methyl-2-pyridinyl]-methyl]sulfinyl]-1H-benzimidazole sodium], for which the “chemical stability such as thermo stability and light stability” value is recorded as “better chemical stability”.
